Source: patent publication US4025623A, “4'-Epi-6'-hydroxyadriamycin and method of use” (priority 1974, dated 1977)
≈ marks a conversion by molar mass, not a printed value. Read-outs that look alike come from different tables or passages of the source.

Assays:
[1] = MEF proliferation (uninfected mouse embryo fibroblasts, in vitro); type: cell-based; settings: time of exposure 72 hours, read-out: ID50 MEF proliferation
Description: (§1) (2) Mouse embryo fibroblasts (MEF) were plated on 35 mm. Falcon plastic dishes, infected 24 hours later with Moloney Sarcoma virus (MSV), and treated for 3 days with different concentrations of the compounds of the invention. The number of foci of transformed cells was microscopically ascertained 5 days after the infection. Uninfected MEF were similarly treated, and at the end of the test, the cells were counted in a hemocytometer. In all the tests, the cells were incubated in a 5% CO2 incubator at 37° C.
(§2) The test compounds were dissolved in distilled water and then diluted in culture medium.

[2] = system: ascites Sarcoma 180; assay: Antitumor activity on ascites Sarcoma 180 in CD 1 mice; type: in vivo; settings: for LTS, Long Term survivors: after 60 days; for T/C, median survival time as % over controls: 1 treatment i.p. at day 1
Description: (§3) The antitumor activity of the compounds of the invention was tested on ascites Sarcoma 180. 3 month old CD 1 mice were used. Sarcoma 180 ascites cells were inoculated intraperitoneally (10^6 cells/mouse).
(§4) The test compounds were dissolved in distilled water, then diluted in Ringer's solution, and administered intraperitoneally 1 day after the tumor implant (10 ml./kg. of body weight). The toxicity of the test compounds was evaluated by macroscopic autoptic examination, mainly in terms of reduction in spleen size. The comparison of the effectiveness of the tested compounds is based on the maximum increase in median survival time, as compared to untreated controls, over the dose range used. The number of Long Term Survivors (LTS) refers to tumor-free mice at the end of the test (60 days).

[3] = system: HeLa cells; assay: HeLa cells cloning efficiency (in vitro); type: cell-based; settings: for IC50: Homo sapiens, HeLa, read-out: ID50 HeLa cells cloning efficiency
Description: (1) HeLa cells were exposed to each of compounds (I) and (V) for 2, 8 and 24 hours, after which the compounds were removed and the cells seeded on […]. Falcon plastic dishes (200 cells/plate) in a growth medium. The number of colonies was ascertained microscopically 5 days later.
as §2
(§5) The results are reported in Table I as ID50 (Inhibiting Dose 50%), calculated on dose-effects lines.

[4] = system: Moloney Sarcoma virus (MSV); assay: MSV foci formation in mouse embryo fibroblasts (in vitro); type: cell-based; settings: Fibroblast, read-out: ID50 MSV foci formation
Description: as §1, §2, §5

[5] = Toxicity in Sarcoma 180 bearing CD 1 mice (toxic deaths, autopsy); type: in vivo
Description: as §3, §4

SMILES | CC50 at 72 h [1] [µg/mL] | LTS, Long Term survivors ([2]; 10 mg./kg. i.p. at day 1) | T/C, median survival time as % over controls ([2]; 10 mg./kg.) [%] | IC50 ([3]; 2 h) [µg/mL] | IC50 ([3]; 8 h) [µg/mL] | IC50 ([3]; 24 h) [µg/mL] | IC50 ([4]; 72 h) [µg/mL] | T/C, median survival time as % over controls ([2]; 2 mg./kg.) [%] | LTS, Long Term survivors ([2]; 0.5 mg./kg. i.p. at day 1) | T/C, median survival time as % over controls ([2]; 0.5 mg./kg.) [%] | LTS, Long Term survivors ([2]; 1 mg./kg. i.p. at day 1) | T/C, median survival time as % over controls ([2]; 1 mg./kg.) [%] | LTS, Long Term survivors ([2]; 2 mg./kg. i.p. at day 1) | T/C, median survival time as % over controls ([2]; 5 mg./kg.) [%] | Toxicity, number of mice which died as a result of the toxic effects of the compound ([5]; 5 mg./kg. i.p. at day 1) | further results
COc1cccc2c1C(=O)c1c(O)c3c(c(O)c1C2=O)C[C@@](O)(C(=O)CO)C[C@@H]3O[C@H]1C[C@H](N)[C@@H](O)[C@H](CO)O1 [4'-epi-6'-hydroxyadriamycin] | 0.05 (≈ 0.0894 µM) | 2/10 | 162 | 0.9 (≈ 1.61 µM) | 1 (≈ 1.79 µM) | 1 (≈ 1.79 µM) | 0.025 (≈ 0.0447 µM) | – | – | – | – | – | – | – | – | LTS, Long Term survivors ([2]; 7.5 mg./kg. i.p. at day 1): 1/10; T/C, median survival time as % over controls ([2]; 7.5 mg./kg.): 143%; LTS, Long Term survivors ([2]; 15 mg./kg. i.p. at day 1): 2/10; T/C, median survival time as % over controls ([2]; 15 mg./kg.): 134%; Toxicity (in words) ([5]; 15 mg./kg. i.p. at day 1): not toxic
COc1cccc2c1C(=O)c1c(O)c3c(c(O)c1C2=O)C[C@@](O)(C(C)=O)C[C@@H]3O[C@H]1C[C@H](N)[C@@H](O)[C@H](CO)O1 [4'-epi-6'-hydroxydaunomycin] | 0.25 (≈ 0.46 µM) | – | 167 | – | – | – | – | 100 | – | – | – | – | – | – | – | T/C, median survival time as % over controls ([2]; 50 mg./kg.): 137%; IC50 ([3]; time of exposure 2 hours): > 10 µg/mL; IC50 ([3]; time of exposure 8 hours): > 10 µg/mL; IC50 ([3]; time of exposure 24 hours): 1.3 µg/mL (≈ 2.39 µM); decrease of activity as compared to parent compound ([3]; in vitro systems tested (HeLa cells, MSV foci, MEF proliferation), compared with 4'-epi-6'-hydroxyadriamycin versus adriamycin): The decrease of activity was higher; IC50 ([4]; time of exposure 72 hours): 0.1 µg/mL (≈ 0.184 µM); Toxicity, number of mice which died as a result of the toxic effects of the compound ([5]; 50 mg./kg. i.p. at day 1): 1/10
COc1cccc2c1C(=O)c1c(O)c3c(c(O)c1C2=O)C[C@@](O)(C(=O)CO)C[C@@H]3O[C@H]1C[C@H](N)[C@H](O)[C@H](C)O1 [Adriamycin, adriamycin] | 0.007 (≈ 0.0129 µM) | 18/139 | 212 | 0.28 (≈ 0.515 µM) | 0.11 (≈ 0.202 µM) | 0.018 (≈ 0.0331 µM) | 0.0025 (≈ 0.0046 µM) | 210 | 1/10 | 142 | 25/159 | 183 | 30/125 | 243 | 7/125 | LTS, Long Term survivors ([2]; 5 mg./kg. i.p. at day 1): 27/125; Toxicity, number of mice which died as a result of the toxic effects of the compound ([5]; 10 mg./kg. i.p. at day 1): 18/139
COc1cccc2c1C(=O)c1c(O)c3c(c(O)c1C2=O)C[C@@](O)(C(C)=O)C[C@@H]3O[C@H]1C[C@H](N)[C@H](O)[C@H](C)O1 [Daunomycin, daunomycin] | 0.009 (≈ 0.0171 µM) | – | – | 0.03 (≈ 0.0569 µM) | 0.013 (≈ 0.0246 µM) | 0.003 (≈ 0.00569 µM) | 0.0055 (≈ 0.0104 µM) | 192 | 3/20 | 146 | 8/55 | 172 | 11/68 | 176 | 14/50 | T/C, median survival time as % over controls ([2]; 8 mg./kg.): 78%; Toxicity, number of mice which died as a result of the toxic effects of the compound ([5]; 8 mg./kg. i.p. at day 1): 7/10
